The text below walks through data of US7307171B2, “Materials and methods for inhibiting fouling of surfaces exposed to aquatic environments” (priority 2003, dated 2007).

The subject of data set [1] is barnacle (Balanus amphitrite) cyprid larvae. The data set is described as follows: Barnacle cyprid larval 24 hour settlement inhibition assay. The settings on record: for anti-settlement activity (in words): barnacle larval settlement; for IC50: cyprid larvae, 24 hr exposure, probit analysis, interval in parentheses; for Inhibition Pot/Paralytic Pot: ratio of relative settlement inhibition potency to relative crayfish paralytic potency; for Barnacle Larvae Settlement Rel. Pot: relative to 2,3′-BP = 100; for Barnacle Larvae Settlement % Inhib: single concentration, three separate experiments, spread in parentheses. In kind it is in vivo. The source says: (§1) While the cypris larval stage was used in settlement tests, the second naupliar larval stage was used in toxicity tests. Great care was taken to ensure that the free bases completely dissolved in aged sea water solutions previously filtered to remove particles >than 100 kDa. This was accomplished by diluting (by immediate and thorough vortexing) a 3×10^−2 Molar solution of the free base in methanol at least 1,000-fold into the filtered sea water. Diluted aqueous solutions of the compounds were not refrigerated and were used within an hour of preparation.

The test system of data set [2] is barnacle second naupliar larval stage. The data set is described as follows: Barnacle naupliar larval 24 hour toxicity (mortality) assay. In kind it is in vivo, Balanus amphitrite. Conditions: 24 hr mortality, interval in parentheses, read-out: Barnacle Larvae Lethal Median Conc. LC50.
Source text: as §1
(§2) All six possible unsubstituted bipyridyls were also tested.

Data set [3] has as its system crayfish Procambarus clarkii. Conditions: for crayfish paralytic activity (in words): crayfish paralysis assay; for Crayfish Acute Paralytic Dose PD50: Table 1, no footnote, P. clarkii, injected into haemocoele, paralysis at 15 min; for fold less toxic/paralytic than 2,3′-BP in crayfish: injected into crayfish, compared with 2,3′-BP; for Crayfish Paralysis PD50: Table 2, no footnote, paralysis 15 min after injection; for Crayfish Paralysis Rel. Pot: relative to 2,3′-BP = 100.
Method: Each alkaloid, dissolved in 0.9% sodium chloride containing 10 mM Tris buffer (pH 7.4), was injected into the haemocoele which surrounds the heart. Dose per unit weight was kept constant by injecting a variable volume, 0.10 ml per 10 g fresh weight. Paralysis was measured 15 minutes after injection by measuring the animal's ability, after being placed on its back, to right itself within a 2-minute period. Although the convulsive paralytic effect of the bipyridyls reached a peak about 2-minutes after injection, paralysis could be more conveniently measured 15 minutes after injection. Generally, the same number (10-20) of crayfish were injected at each dose, and the dose interval was kept constant. Before the assay, crayfish were tested to ascertain that they could right themselves within a one minute period.
Animals initially develop tremors, then flex their legs, repeatedly flip their tails, then fall on their side in a tonic convulsion within 2-5 minutes after injection. Recovery is appreciable within 15 minutes, the time selected as most convenient for evaluating groups of 5 animals rapidly injected one after another.

Data set [4] relates to crayfish Procambarus clarkii. The settings on record: cited from earlier work; for Crayfish Paralysis PD50: Table 2 footnote 1: published previously (Kem, Soti 2001).
Data set [5] is described as follows: Barnacle naupliar larval 24 hour toxicity (mortality) assay. The settings on record: Balanus amphitrite, in vivo, other: larvae exposed in sea water solution of the compound; second naupliar stage, 24 hr mortality; interval in parentheses; read-out: Barnacle Larvae Lethal Median Conc. LC50. It counts as in vivo, Balanus amphitrite.
Source text: as §1, §2

[6] abbreviates: Table 1 footnote 2: published previously, P. clarkii from Louisiana (Kem, Soti 2001).
Where [7] appears, read: Table 1 footnote 1: published previously, P. clarkii from California (Kem 1976).

Read-outs that look alike come from different tables or passages of the source. Some results are limits rather than exact numbers.

A word on the IC50: it is the concentration needed to halve the response being measured. The term LC50 denotes the concentration lethal to half of the exposed cells or organisms. As for “1-methyl-2,3′-BP [1-Methyl-2,3′BP, reference compound]”, in data set [1], the “anti-settlement activity (in words)” value is given as “low anti-settlement activity” and the IC50 was > 100 µM. Further, the LC50 in data set [2] was > 100 µM. Also, the “crayfish paralytic activity (in words)” value in data set [3] is “very low paralytic activity”. In addition, the “Crayfish Acute Paralytic Dose PD50” value in data set [4] (setting [6]) is >800^2 μg.

With “2-(thienyl)-pyridine [reference compound]”, in data set [1], the “anti-settlement activity (in words)” value is listed as “inactivity” and the 50% inhibitory concentration (IC50) was > 100 µM. Also, in data set [2], the LC50 is > 100 µM. Besides, the “Crayfish Acute Paralytic Dose PD50” value in data set [4] (setting [6]) is on record as 650^2 μg.

As to `c1cnc2c(c1)ccc1ncccc12` [1,7-phenanthroline, reference compound], in data set [1] (Amphibalanus amphitrite), the 50% inhibitory concentration (IC50) was > 50 µM. The “anti-settlement activity (in words)” value in data set [1] is “inactive at a 10-fold higher concentration”. In addition, the LC50 at 24 h in data set [5] is > 50 µM. Also, in data set [3], the “crayfish paralytic activity (in words)” value is recorded as “low activity”. Besides, the “Crayfish Acute Paralytic Dose PD50” value in data set [4] (setting [6]) is >30^2 μg.

With `c1cnc2c(c1)ccc1ccncc12` [1,9-phenanthroline], the IC50 in data set [1] (Amphibalanus amphitrite) was determined as 2 µM. Also, the “anti-settlement activity (in words)” value in data set [1] is “almost as active as 2,3′-BP”. Further, in data set [5], the LC50 at 24 h was > 50 µM. Also, the “Crayfish Acute Paralytic Dose PD50” value in data set [4] (setting [6]) is on record as 3.0^2 μg.

For the compound `c1ccc(-c2ccccn2)nc1` [2,2′-BP, 2,2′-bipyridyl], in data set [1] (Amphibalanus amphitrite), the IC50 worked out at 7 µM. The LC50 at 24 h in data set [5] worked out at 4.4 µM. In data set [3], the “Crayfish Acute Paralytic Dose PD50” value was >100 µg and the “fold less toxic/paralytic than 2,3′-BP in crayfish” value was “at least 50 fold”.

One may read the pKa as the pH at which an ionisable group is half protonated. High values mean a group that holds its proton tightly, low ones a group that gives up its proton readily. For the compound `c1ccc(-c2cccnc2)nc1` [2,3′-BP, 2,3′-Bipyridyl], the IC50 in data set [1] (Amphibalanus amphitrite) was 4.1 µM. Further, in data set [1], the “Inhibition Pot/Paralytic Pot” value turned out to be 1.0, the “Barnacle Larvae Settlement Rel. Pot” value was found to be 100 and the “Barnacle Larvae Settlement % Inhib” value is on record as 54 (11) %. Besides, the median lethal concentration (LC50) at 24 h in data set [5] is 1.9 µM. For the same compound, in data set [3], the “Crayfish Paralysis PD50” value is 1.8 µg and the “Crayfish Paralysis Rel. Pot” value is recorded as 100. Further, in “physchem”, the pKa is 4.4. Further, the “Crayfish Acute Paralytic Dose PD50” value in data set [4] (setting [7]) was 0.88^1 μg. Further, the “Crayfish Acute Paralytic Dose PD50” value in data set [4] (setting [6]) is given as 1.8^2 μg.

Regarding `c1ccc(-c2ccncc2)nc1` [2,4′-BP, 2,4′-bipyridyl], the IC50 in data set [1] (Amphibalanus amphitrite) is > 100 µM. For the same compound, in data set [5], the median lethal concentration (LC50) at 24 h is > 50 µM. Moreover, the “Crayfish Acute Paralytic Dose PD50” value in data set [3] is >20 µg.

Take `c1cnc(-c2cccnc2)nc1` [2-(3-pyridyl)-pyrimidine]: the IC50 in data set [1] (Amphibalanus amphitrite) was > 50 µM. Further, in data set [5], the LC50 at 24 h was > 50 µM. For the same compound, in data set [4] (setting [6]), the “Crayfish Acute Paralytic Dose PD50” value was 2.6^2 μg.

On to `Cc1ncccc1-c1ccccn1` [2′-Me2,3′-BP, 2′-Me2,3′-bipyridyl], for which, in data set [1], the “Inhibition Pot/Paralytic Pot” value is listed as <0.05, the “Barnacle Larvae Settlement Rel. Pot” value was 0 and the “Barnacle Larvae Settlement % Inhib” value is reported as 0 (33) %. Further, the “Crayfish Paralysis Rel. Pot” value in data set [3] was determined as 1. Moreover, in data set [4], the “Crayfish Paralysis PD50” value is on record as 210^1 μg.

Turning to `c1cncc(-c2cccnc2)c1` [3,3′-BP, 3,3′-bipyridyl], the IC50 in data set [1] (Amphibalanus amphitrite) is > 100 µM. Further, the LC50 at 24 h in data set [5] stood at 10 µM. In addition, in data set [3], the “Crayfish Acute Paralytic Dose PD50” value is 17 µg.

In the case of `c1cncc(-c2ccncc2)c1` [3,4′-BP, 3,4′-bipyidyl], in data set [1], the IC50 was > 100 µM. The LC50 in data set [2] is > 20 µM. Moreover, in data set [3], the “Crayfish Acute Paralytic Dose PD50” value is 61 µg.

For `Clc1cccnc1-c1cccnc1` [3-Chloro-2,3′-BP, reference compound], in data set [1], the “anti-settlement activity (in words)” value is given as “inability of the 3-chloro-2,3′-BP to inhibit settlement at 100 μM” and the IC50 was > 100 µM. In data set [2], the LC50 is > 50 µM.

`Cc1cccnc1-c1cccnc1` [3-Me2,3′-BP, 3-Methyl-2,3′-bipyridyl]: in data set [1], the “Inhibition Pot/Paralytic Pot” value worked out at 2.1, the “Barnacle Larvae Settlement Rel. Pot” value is reported as 63 and the “Barnacle Larvae Settlement % Inhib” value is recorded as 34 (13) %. Besides, the “Crayfish Paralysis Rel. Pot” value in data set [3] stood at 30. Besides, the “Crayfish Paralysis PD50” value in data set [4] is recorded as 59^1 μg.

For the compound `c1cc(-c2ccncc2)ccn1` [4,4′-BP, 4,4′-bipyridyl], the IC50 in data set [1] (Amphibalanus amphitrite) was > 100 µM.

Turning to `Cc1ccnc(-c2cccnc2)c1` [4-Me2,3′-BP, 4-Me2,3′-bipyridyl], in data set [1], the “Inhibition Pot/Paralytic Pot” value is given as 3.1, the “Barnacle Larvae Settlement Rel. Pot” value turned out to be 154 and the “Barnacle Larvae Settlement % Inhib” value is 83 (4) %. Besides, in data set [3], the “Crayfish Paralysis PD50” value came out at 3.6 µg and the “Crayfish Paralysis Rel. Pot” value amounted to 50.

As for `Cc1ccncc1-c1ccccn1` [4′-Me2,3′-BP, 4′-Methyl-2,3′-bipyridyl], in data set [1], the “Inhibition Pot/Paralytic Pot” value is 56, the “Barnacle Larvae Settlement Rel. Pot” value is 167 and the “Barnacle Larvae Settlement % Inhib” value was 90 (10) %. Further, in data set [3], the “fold less toxic/paralytic than 2,3′-BP in crayfish” value amounted to 33 fold and the “Crayfish Paralysis Rel. Pot” value was determined as 3. The “crayfish paralytic activity as % of 2,3′-BP” value in data set [3] (relative to 2,3′-BP) stood at 3%. Also, the “Crayfish Paralysis PD50” value in data set [4] is recorded as 69^1 μg.

Take `Cc1ccc(-c2cccnc2)nc1` [5-Me2,3′-BP, 5-methyl-2,3′-bipyridyl]: in data set [1], the “Inhibition Pot/Paralytic Pot” value is given as 0.96, the “Barnacle Larvae Settlement Rel. Pot” value is reported as 176 and the “Barnacle Larvae Settlement % Inhib” value is listed as 95 (5) %. Also, in data set [3], the “Crayfish Paralysis PD50” value amounted to 0.98 µg and the “Crayfish Paralysis Rel. Pot” value stood at 184.

For `Cc1cncc(-c2ccccn2)c1` [5′-Me2,3′-BP, 5′-Methyl-2,3′-bipyridyl], in data set [1], the “Inhibition Pot/Paralytic Pot” value is given as 1.8, the “Barnacle Larvae Settlement Rel. Pot” value amounted to 100 and the “Barnacle Larvae Settlement % Inhib” value is recorded as 54 (28) %. In data set [3], the “Crayfish Paralysis PD50” value is 3.3 µg and the “Crayfish Paralysis Rel. Pot” value is 55.

In the case of `Cc1cccc(-c2cccnc2)n1` [6-Me2,3′-BP, 6-methyl-2,3′-bipyridyl], in data set [1], the “Inhibition Pot/Paralytic Pot” value worked out at 0.27, the “Barnacle Larvae Settlement Rel. Pot” value is on record as 30 and the “Barnacle Larvae Settlement % Inhib” value is 16 (16) %. In data set [3], the “Crayfish Paralysis PD50” value was 1.6 µg and the “Crayfish Paralysis Rel. Pot” value turned out to be 112.

Take `Cc1ccc(-c2ccccn2)cn1` [6′-Me2,3′-BP, 6′-Methyl-2,3′-bipyridyl]: in data set [1], the “Inhibition Pot/Paralytic Pot” value came to 3.7, the “Barnacle Larvae Settlement Rel. Pot” value is recorded as 56 and the “Barnacle Larvae Settlement % Inhib” value was 30 (16) %. In addition, in data set [3], the “Crayfish Paralysis PD50” value is 12 µg and the “Crayfish Paralysis Rel. Pot” value came out at 15.

As for `c1cncc(C2=NCCCC2)c1` [Anabaseine, anabaseine], the IC50 in data set [1] (Amphibalanus amphitrite) came to 1.2 µM. In addition, the LC50 at 24 h in data set [5] came out at 2 µM. Besides, in data set [3], the “crayfish paralytic activity (in words)” value is reported as “slightly less paralytic than 2,3′-BP” and the “fold less toxic/paralytic than 2,3′-BP in crayfish” value is “approximately 4 fold”. Besides, the “Crayfish Acute Paralytic Dose PD50” value in data set [4] (setting [7]) was 3.6^1 μg.

`c1cncc([C@@H]2CCCCN2)c1` [Anabasine]: the IC50 in data set [1] (Amphibalanus amphitrite) is 3 µM. Besides, in data set [3], the “Crayfish Acute Paralytic Dose PD50” value worked out at 3.9 µg.

As for `c1cncc(-c2ccnc(-c3cccnc3)c2)c1` [Nicotelline], the “anti-settlement activity (in words)” value in data set [1] is listed as “displayed an activity similar to nemertelline”.

For `c1cncc(C2=NCCCN2)c1` [PTHP, 2-(3-pyridyl)-3,4,5,6-tetrahydropyrimidine, reference compound], the IC50 in data set [1] (Amphibalanus amphitrite) was > 100 µM. In data set [1], the “anti-settlement activity (in words)” value is recorded as “relative inactivity”. Also, the LC50 at 24 h in data set [5] is > 100 µM. Further, the “crayfish paralytic activity (in words)” value in data set [3] was “very low paralytic activity”. Further, the “Crayfish Acute Paralytic Dose PD50” value in data set [4] (setting [6]) was 81^2 μg.

Consider (S)-anabaseine, for which, in data set [1], the “anti-settlement activity (in words)” value is reported as “inhibited settlement”.

Consider nemertelline, for which the IC50 in data set [1] was 3.2 µM. In addition, in data set [3], the “Crayfish Acute Paralytic Dose PD50” value was >120 µg.
